Numbering of substitutions follows the chain as printed. Counter-ions that a name gives are not always drawn. Like-named read-outs stand apart in the source and are kept apart here.

For nine compounds, IC50 results are on record in patent US20260102501A1, “ANTI-CANCER NUCLEAR HORMONE RECEPTOR-TARGETING COMPOUNDS” (Nuvation Bio Inc., priority 2022, published 2026).

The test system of test [1] is LNCap cells. As to the kind of experiment: Cell viability assay (CellTiterGlo). It is filed as cell-based. To be noted: Homo sapiens, 144 h. Background: In ATP-based viability assays light output follows the ATP content of the culture.
Test [2] concerns IEC6 cells. Nature of the test: Cell viability assay (CellTiterGlo). The note with it: Rattus norvegicus, IEC-6, 144 h, read-out: IEC-6 (IC50, nM).
In test [3] the target is T1, full-length androgen receptor (HEK293 cells stably expressing) (Homo sapiens, UniProt P10275).
T1 sequence (P10275 1-920): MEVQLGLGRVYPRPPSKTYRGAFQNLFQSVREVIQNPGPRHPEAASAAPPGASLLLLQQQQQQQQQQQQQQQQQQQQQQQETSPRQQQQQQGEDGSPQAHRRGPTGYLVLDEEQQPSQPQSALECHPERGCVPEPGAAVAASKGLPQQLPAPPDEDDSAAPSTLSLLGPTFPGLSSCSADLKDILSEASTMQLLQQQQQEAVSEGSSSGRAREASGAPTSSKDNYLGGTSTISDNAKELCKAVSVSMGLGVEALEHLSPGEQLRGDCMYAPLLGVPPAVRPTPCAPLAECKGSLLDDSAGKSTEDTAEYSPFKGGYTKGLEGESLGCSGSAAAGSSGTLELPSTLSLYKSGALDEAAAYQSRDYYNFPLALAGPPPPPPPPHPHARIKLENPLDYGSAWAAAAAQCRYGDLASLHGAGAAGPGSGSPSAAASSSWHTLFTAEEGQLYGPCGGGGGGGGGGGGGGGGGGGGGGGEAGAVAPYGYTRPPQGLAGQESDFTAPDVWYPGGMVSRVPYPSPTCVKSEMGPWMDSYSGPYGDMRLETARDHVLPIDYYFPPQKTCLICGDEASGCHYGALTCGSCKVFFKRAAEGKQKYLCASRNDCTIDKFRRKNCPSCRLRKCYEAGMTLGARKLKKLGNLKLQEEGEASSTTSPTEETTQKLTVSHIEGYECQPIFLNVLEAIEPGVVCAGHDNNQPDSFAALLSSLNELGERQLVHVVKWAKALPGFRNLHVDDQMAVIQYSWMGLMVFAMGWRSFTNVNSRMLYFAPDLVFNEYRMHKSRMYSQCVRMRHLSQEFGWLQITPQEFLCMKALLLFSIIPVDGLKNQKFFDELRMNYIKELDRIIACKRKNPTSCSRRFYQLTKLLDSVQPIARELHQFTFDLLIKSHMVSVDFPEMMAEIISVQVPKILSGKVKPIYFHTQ
Nature of the test: AR antagonism assay (luciferase reporter).

Test [4] concerns the target T2, AR (cytosol from LnCaP cells) (Homo sapiens, UniProt P10275, T878A).
T2 sequence (P10275 1-920 T878A): T1 sequence (P10275 1-920) with T878A
As to the kind of experiment: AR binding assay (3H-R1881 displacement).
Description: The plate was then centrifuged at 3000 rpm for 30 minutes at 4° C.

For test [5], the system named is 22Rv1 cells. Nature of the test: Cell viability assay (CellTiterGlo). To be noted: Homo sapiens, 22Rv1, 144 h, read-out: 22RV1 (IC50, nM).
Setting [6] is: 6 days incubation, CellTiterGlo, read-out: LNCap (IC50).

Usually IC50 stands for the concentration that gives 50% inhibition. `CC[C@@]1(O)C(=O)OCc2c1cc1n(c2=O)Cc2c-1nc1cc(F)c(C)c3c1c2[C@@H](NC(=O)CN1CCN(CCCCCCC2CCN(c4ccc(C(=O)N[C@H]5CC[C@H](Oc6ccc(C#N)c(Cl)c6C)CC5)nn4)CC2)CC1)CC3` [Compound No. 48, N-((1r,4r)-4-(3-chloro-4-cyano-2-methylphenoxy)cyclohexyl)-6-(4-(6-(4-(2-(((1S,9S)-9-ethyl-5-fluoro-9-hydroxy-4-methyl-10,13-dioxo-2,3,9,10,13,15-hexahydro-1H,12H-benzo[de]pyrano[3′,4′:6,7]indolizino[1,2-b]quinolin-1-yl)amino)-2-oxoethyl)piperazin-1-yl)hexyl)piperidin-1-yl)pyridazine-3-carboxamide]: the IC50 in test [1] (setting [6]) was 101 to 1000 nM; in test [2] it was above 1000 nM; in test [3], 0.101 to 1 µM; in test [4], 0.01 to 0.1 µM; in test [5], 101 to 1000 nM.

`CC[C@@]1(O)C(=O)OCc2c1cc1n(c2=O)Cc2cc3c(CN4CCN(CCCCCCC5CCN(c6ccc(C(=O)N[C@H]7CC[C@H](Oc8ccc(C#N)c(Cl)c8C)CC7)nn6)CC5)CC4)c(O)ccc3nc2-1` [Compound No. 52]: the IC50 in test [1] (setting [6]) was 10 to 100 nM; in test [2], 101 to 1000 nM; in test [3] it was 0.01 to 0.1 µM; in test [4], 0.01 to 0.1 µM; in test [5], 10 to 100 nM.

Consider `CC[C@@]1(O)C(=O)OCc2c1cc1n(c2=O)Cc2cc3c(CN(C)C)c(OC(=O)N4C[C@H](C)N(CCCCCCN(C)C5CCN(c6ccc(C(=O)N[C@H]7CC[C@H](Oc8ccc(C#N)c(Cl)c8C)CC7)nn6)CC5)C[C@H]4C)ccc3nc2-1` [Compound 33, (S)-10-((Dimethylamino)methyl)-4-ethyl-4-hydroxy-3,14-dioxo-3,4,12,14-tetrahydro-1H-pyrano[3′,4′:6,7]indolizino[1,2-b]quinolin-9-yl (2R,5S)-4-(6-((1-(6-(((1r,4r)-4-(3-chloro-4-cyano-2-methylphenoxy)cyclohexyl)carbamoyl)pyridazin-3-yl)piperidin-4-yl)(methyl)amino)hexyl)-2,5-dimethylpiperazine-1-carboxylate Formate], for which the IC50 in test [1] (read-out: LNCap (IC50, nM)) is 10 to 100 nM; in test [2], above 1000 nM; in test [3], above 1 µM; in test [4], below 0.01 µM; in test [5], 101 to 1000 nM.

Take `CC[C@@]1(O)C(=O)OCc2c1cc1n(c2=O)Cc2cc3c(CN4CCN(CCCCCCC5CCN(c6ccc(C(=O)N[C@H]7CC[C@H](Oc8ccc(C#N)c(Cl)c8C)CC7)nn6)CC5)CC4)cccc3nc2-1` [Compound 44, N-((1r,4r)-4-(3-chloro-4-cyano-2-methylphenoxy)cyclohexyl)-6-(4-(6-(4-(((S)-4-ethyl-4-hydroxy-3,14-dioxo-3,4,12,14-tetrahydro-1H-pyrano[3′,4′:6,7]indolizino[1,2-b]quinolin-10-yl)methyl)piperazin-1-yl)hexyl)piperidin-1-yl)pyridazine-3-carboxamide]: the IC50 in test [1] (setting [6]) is 101 to 1000 nM; in test [2], above 1000 nM; in test [3] it was above 1 µM; in test [4], 0.01 to 0.1 µM; in test [5], 101 to 1000 nM.

Regarding `CC[C@@]1(O)C(=O)OCc2c1cc1n(c2=O)Cc2c-1nc1cc(F)c(C)c3c1c2[C@@H](NC(=O)CN1CCN(C(=O)CCCCCC2CCN(c4ccc(C(=O)N[C@H]5CC[C@H](N(C)c6ccc(C#N)c(Cl)c6)CC5)nn4)CC2)CC1)CC3` [Compound No. 46], the IC50 in test [1] (setting [6]) is 101 to 1000 nM; in test [2], above 1000 nM; in test [3], above 1 µM; in test [4], 0.101 to 1 µM; in test [5] it was 101 to 1000 nM.

For the compound `CC[C@@]1(O)C(=O)OCc2c1cc1n(c2=O)Cc2cc3c(CN4CCN(CC5CCN(c6ccc(N7C(=S)N(c8ccc(C#N)c(Cl)c8)C(=O)C7(C)C)cc6)CC5)CC4)c(O)ccc3nc2-1` [Compound No. 53, (S)-2-chloro-4-(3-(4-(4-((4-((4-ethyl-4,9-dihydroxy-3,14-dioxo-3,4,12,14-tetrahydro-1H-pyrano[3′,4′:6,7]indolizino[1,2-b]quinolin-10-yl)methyl)piperazin-1-yl)methyl)piperidin-1-yl)phenyl)-4,4-dimethyl-5-oxo-2-thioxoimidazolidin-1-yl)benzonitrile], the IC50 in test [1] (setting [6]) lay in the range of 10 to 100 nM; in test [2], 101 to 1000 nM; in test [3], 0.01 to 0.1 µM; in test [4], 0.01 to 0.1 µM; in test [5] it was 10 to 100 nM.

Consider `CC[C@@]1(O)C(=O)OCc2c1cc1n(c2=O)Cc2cc3c(CN4CCN(C(=O)C5CCN(c6ccc(C(=O)N[C@H]7CC[C@H](Oc8ccc(C#N)c(Cl)c8)CC7)nn6)CC5)CC4)c(OC(=O)N(C(C)C)C(C)C)ccc3nc2-1` [Compound 1, (S)-10-((4-(1-(6-(((1r,4r)-4-(3-Chloro-4-cyanophenoxy)cyclohexyl)carbamoyl)pyridazin-3-yl)piperidine-4-carbonyl)piperazin-1-yl)methyl)-4-ethyl-4-hydroxy-3,14-dioxo-3,4,12,14-tetrahydro-1H-pyrano[3′,4′:6,7]indolizino[1,2-b]quinolin-9-yl Diisopropylcarbamate], for which the IC50 in test [1] (read-out: LNCap (IC50, nM)) is above 1000 nM; in test [2], above 1000 nM; in test [3], above 1 µM; in test [4], 0.101 to 1 µM; in test [5], above 1000 nM.

As to `CC[C@@]1(O)C(=O)OCc2c1cc1n(c2=O)Cc2cc3c(CN4CCN(C(=O)CCCCCC5CCN(c6ccc(C(=O)N[C@H]7CC[C@H](N(C)c8ccc(C#N)c(Cl)c8)CC7)nn6)CC5)CC4)cccc3nc2-1` [Compound 43], the IC50 in test [1] (setting [6]) is 101 to 1000 nM; in test [2], above 1000 nM; in test [3], above 1 µM; in test [4], 0.01 to 0.1 µM; in test [5], 101 to 1000 nM.

In the case of `CC[C@@]1(O)C(=O)OCc2c1cc1n(c2=O)Cc2cc3c(CN(C)C)c(OCC4CCN(C(=O)C5CCN(c6ccc(C(=O)N[C@H]7CC[C@H](Oc8ccc(C#N)c(Cl)c8)CC7)nn6)CC5)CC4)ccc3nc2-1` [Compound No. 16, N-((1r,4r)-4-(3-Chloro-4-cyanophenoxy)cyclohexyl)-6-(4-(4-((((S)-10-((dimethylamino)-methyl)-4-ethyl-4-hydroxy-3,14-dioxo-3,4,12,14-tetrahydro-1H-pyrano[3′,4′:6,7]indolizino[1,2-b]quinolin-9-yl)oxy)methyl)piperidine-1-carbonyl)piperidin-1-yl)pyridazine-3-carboxamide], the IC50 was 101 to 1000 nM in test [1] (setting [6]), above 1000 nM in test [2], 0.01 to 0.1 µM in test [4] and 101 to 1000 nM in test [5].
